{
  "source": "patent US20110104257A1",
  "about": "“POLYMORPHISMS PREDICTIVE OF PLATINUM-COORDINATING COMPOUND-INDUCED OTOTOXICITY” (priority 2008, published 2011)",
  "origin": "cited, not measured here",
  "molecules": {"B1": {"name": "SOD2: SOD2, protective agent (protein, UniProt P04179 25-222, looked up)", "Superoxide dismutase [Mn], …": "KHSLPDLPYDYGALEPHINAQIMQLHHSKHHAAYVNNLNVTEEKYQEALAKGDVTAQIALQPALKFNGGGHINHSIFWTNLSPNGGGEPKGELLEAIKRDFGSFDKFKEKLTAASVGVQGSGWGWLGFNKERGHLQIAACPNQDPLQGTTGLIPLLGIDVWEHAYYLQYKNVRPDYLKAIWNVINWENVTERYMACKK"}},
  "key": {"[1]": {"system": "aminoglycoside ototoxicity", "settings": "Guinea pig"}, "cisplatin ototoxicity [2]": {"system": "cisplatin ototoxicity", "parameters": "key to the marks not given beside the values", "settings": "Hamster"}, "cisplatin ototoxicity [3]": {"system": "cisplatin ototoxicity", "settings": "Rat"}, "[4]": {"system": "aminoglycoside ototoxicity", "parameters": "key to the marks not given beside the values", "settings": "Gentamicin; Rat"}, "cisplatin ototoxicity [5]": {"system": "cisplatin ototoxicity", "settings": "species cell empty"}, "[6]": {"system": "aminoglycoside ototoxicity", "parameters": "key to the marks not given beside the values", "settings": "Gentamicin; Mouse"}, "cisplatin ototoxicity [7]": {"system": "cisplatin ototoxicity", "parameters": "key to the marks not given beside the values", "settings": "Chinchilla"}, "[8]": {"settings": "mice"}, "cisplatin ototoxicity [9]": {"system": "cisplatin ototoxicity", "parameters": "key to the marks not given beside the values", "settings": "Guinea pig"}},
  "note": "Where two headings read alike, the source gives them in different places.",
  "data": [
    {"molecule": "O=C(O)CCCC[C@@H]1CCSS1", "note": "(racemic) [Lipoic acid]; on Efficacy of protective agent against aminoglycoside ototoxicity: key: +, low efficacy; ++, moderate efficacy; +++, high efficacy", "values": [
      {"measurement": "Efficacy of protective agent against aminoglycoside ototoxicity", "setting": "[1]; Amikacin", "value": "+++"}
    ]},
    {"molecule": "c1ccc(-c2ccccn2)nc1", "note": "[2,2-DPD, 2,2′-dipyridyl]", "values": [
      {"measurement": "Efficacy of protective agent against aminoglycoside ototoxicity", "setting": "[1]; Gentamicin", "value": "++"}
    ]},
    {"molecule": "NCC[C@H](O)C(=O)N[C@@H]1C[C@H](N)[C@@H](O[C@H]2O[C@H](CN)[C@@H](O)[C@H](O)[C@H]2O)[C@H](O)[C@H]1O[C@H]1O[C@H](CO)[C@@H](O)[C@H](N)[C@H]1O", "note": "[Amakacin preconditioning]", "values": [
      {"measurement": "Efficacy of protective agent against aminoglycoside ototoxicity", "setting": "[1]; Amikacin", "value": "++"}
    ]},
    {"molecule": "NCCCNCCSP(=O)(O)O", "note": "[Amifostine]", "values": [
      {"measurement": "Degree of protection against cisplatin ototoxicity", "setting": "cisplatin ototoxicity [2]", "value": "+++"}
    ]},
    {"molecule": "N=C(N)NN", "note": "[Aminoguanidine]", "values": [
      {"measurement": "Degree of protection against cisplatin ototoxicity", "setting": "cisplatin ototoxicity [3]", "value": "++"}
    ]},
    {"molecule": "CSCC[C@H](NC(=O)[C@H](Cc1ccccc1)NC[C@@H](NC[C@@H](N)CS)C(C)C)C(=O)O", "note": "[B581]", "values": [
      {"measurement": "Efficacy of protective agent against aminoglycoside ototoxicity", "setting": "[4]", "value": "++"}
    ]},
    {"molecule": "OC[C@H]1O[C@@H](n2cnc3c(NC4CCCC4)nc(Cl)nc32)[C@H](O)[C@@H]1O", "note": "[CCPA, 2-chloro-N-cyclopentyladenosine]", "values": [
      {"measurement": "Degree of protection against cisplatin ototoxicity", "setting": "cisplatin ototoxicity [5]", "value": "++"}
    ]},
    {"molecule": "CCSCc1ccc2c(c1)c1c3c(c4c5cc(CSCC)ccc5n5c4c1n2[C@H]1C[C@](O)(C(=O)OC)[C@]5(C)O1)CNC3=O", "note": "[CEP1347]", "values": [
      {"measurement": "Efficacy of protective agent against aminoglycoside ototoxicity", "setting": "[1]; Gentamicin", "value": "+"}
    ]},
    {"molecule": "CSCC[C@@H](N)C(=O)O", "note": "[D-methionine]", "values": [
      {"measurement": "Efficacy of protective agent against aminoglycoside ototoxicity", "setting": "[1]; Gentamicin", "value": "++"},
      {"measurement": "Degree of protection against cisplatin ototoxicity", "setting": "cisplatin ototoxicity [3]", "value": "+++"}
    ]},
    {"molecule": "C=C(CC)C(=O)c1ccc(OCC(=O)O)c(Cl)c1Cl", "note": "[Ethacrynic acid]", "values": [
      {"measurement": "Efficacy of protective agent against aminoglycoside ototoxicity", "setting": "[1]; Gentamicin", "value": "+"}
    ]},
    {"molecule": "COC(=O)[C@H](CCSC)NC(=O)c1ccc(NC[C@@H](N)CS)cc1-c1ccccc1", "note": "[FTI277]", "values": [
      {"measurement": "Efficacy of protective agent against aminoglycoside ototoxicity", "setting": "[4]", "value": "+++"}
    ]},
    {"molecule": "Nc1nc2c(ncn2[C@@H]2O[C@H](COP(=O)(O)OP(O)(O)=S)[C@@H](O)[C@H]2O)c(=O)[nH]1", "note": "[GDP-βs]", "values": [
      {"measurement": "Efficacy of protective agent against aminoglycoside ototoxicity", "setting": "[4]", "value": "+++"}
    ]},
    {"molecule": "[Cl-].[Cl-].[Mn+2].c1cc2nc(c1)CN[C@@H]1CCCC[C@H]1NCCN[C@@H]1CCCC[C@H]1NC2", "note": "[M40403]", "values": [
      {"measurement": "Efficacy of protective agent against aminoglycoside ototoxicity", "setting": "[6]", "value": "++"},
      {"measurement": "Degree of protection against cisplatin ototoxicity", "setting": "cisplatin ototoxicity [5]", "value": 0}
    ]},
    {"molecule": "NS(=O)(=O)C#Cc1ccccc1", "note": "[Pifithrin]", "values": [
      {"measurement": "Degree of protection against cisplatin ototoxicity", "setting": "cisplatin ototoxicity [5]", "value": "++"}
    ]},
    {"molecule": "C[C@H](Cc1ccccc1)Nc1ncnc2c1ncn2[C@@H]1O[C@H](CO)[C@@H](O)[C@H]1O", "note": "[R-PIA]", "values": [
      {"measurement": "Degree of protection against cisplatin ototoxicity", "setting": "cisplatin ototoxicity [7]", "value": "++"}
    ]},
    {"molecule": "C[S+](CC[C@H](N)C(=O)O)C[C@H]1O[C@@H](n2cnc3c(N)ncnc32)[C@H](O)[C@@H]1O", "note": "(stereo partly shown) [SAM, S-adenosyl methionine]", "values": [
      {"measurement": "toxicity as monitored by renal dysfunction (creatinine and BUN)", "setting": "[8]", "value": "not toxic"}
    ]},
    {"molecule": "CC(S)C(=O)NCC(=O)O", "note": "(stereo not shown) [Tiopronin]", "values": [
      {"measurement": "Degree of protection against cisplatin ototoxicity", "setting": "cisplatin ototoxicity [3]", "value": "++"}
    ]},
    {"molecule": "Cc1c(C)c2c(c(C)c1O)CCC(C)(C(=O)O)O2", "note": "(stereo not shown) [Trolox]", "values": [
      {"measurement": "Degree of protection against cisplatin ototoxicity", "setting": "cisplatin ototoxicity [9]", "value": "++"}
    ]},
    {"molecule": "N.N.[Cl][Pt][Cl]", "note": "[cisplatin]", "values": [
      {"measurement": "severe, permanent, bilateral hearing loss, share of patients", "setting": "adult patients", "value": "10-25%"},
      {"measurement": "severe, permanent, bilateral hearing loss, share of patients", "setting": "children", "value": "41-61%"},
      {"measurement": "Permanent hearing loss, frequency", "setting": "children less than 5 years old", "value": 48, "unit": "%"},
      {"measurement": "severe, permanent, bilateral hearing loss, share of patients", "setting": "patients receiving high doses (>400 mg/m^2)", "value": 50, "unit": "%"},
      {"measurement": "Permanent hearing loss, share of patients", "setting": "patients receiving standard doses of cisplatin", "value": 25, "unit": "%"}
    ]},
    {"molecule": "Cc1c(C)c2c(c(C)c1O)CC[C@@](C)(CCC[C@H](C)CCC[C@H](C)CCCC(C)C)O2", "note": "[α-Tocopherol]", "values": [
      {"measurement": "Efficacy of protective agent against aminoglycoside ototoxicity", "setting": "[1]; Gentamicin", "value": "+++"},
      {"measurement": "Degree of protection against cisplatin ototoxicity", "setting": "cisplatin ototoxicity [9]", "value": "++"},
      {"measurement": "Degree of protection against cisplatin ototoxicity", "setting": "cisplatin ototoxicity [3]", "value": "++"}
    ]},
    {"molecule": "Glutathione ester", "values": [
      {"measurement": "Degree of protection against cisplatin ototoxicity", "setting": "cisplatin ototoxicity [3]", "value": "+"}
    ]},
    {"molecule": "Methylthiobenzoic acid", "values": [
      {"measurement": "Degree of protection against cisplatin ototoxicity", "setting": "cisplatin ototoxicity [3]", "value": "++"}
    ]},
    {"molecule": "SOD1: SOD1, protective agent", "values": [
      {"measurement": "Efficacy of protective agent against aminoglycoside ototoxicity", "setting": "[1]; Kanamycin + Ethacrynic acid", "value": "++"}
    ]},
    {"molecule": "Z-DEVD-fluoromethyl ketone", "values": [
      {"measurement": "Degree of protection against cisplatin ototoxicity", "setting": "cisplatin ototoxicity [9]", "value": "+++"}
    ]},
    {"molecule": "Z-LEKD-fluoromethyl ketone", "values": [
      {"measurement": "Degree of protection against cisplatin ototoxicity", "setting": "cisplatin ototoxicity [9]", "value": "+++"}
    ]},
    {"molecule": "B1", "values": [
      {"measurement": "Efficacy of protective agent against aminoglycoside ototoxicity", "setting": "[1]; Kanamycin + Ethacrynic acid", "value": "++"}
    ]}
  ]
}
